Data from ChEMBL document CHEMBL1201862, “PubChem BioAssay data set” (2004).
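Grown in 96-well plates, cells were treated for 48 hours with each compound at five concentrations. Insufficient inhibition: endpoint recorded as highest concentration tested. Here, GI50 denotes the concentration required for 50% inhibition of growth.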 Activity calls are given as the source filed them. Rule as the data show it: active = GI50 up to about 1.1 µM and inactive = higher.

Key:
Experiment in all cases: DTP human tumour cell line panel, 48 h
[1] = tested on: CAKI-1
[2] = tested on: SW-620
[3] = tested on: HCT-15
[4] = tested on: Hs-578T
[5] = tested on: UACC-62
[6] = tested on: NCI-H23
[7] = tested on: HL-60
[8] = tested on: CCRF-CEM
[9] = tested on: SNB-19
[10] = tested on: MDA-N
[11] = tested on: OVCAR-5
[12] = tested on: K562
[13] = tested on: HOP-62
[14] = tested on: A498
[15] = tested on: OVCAR-3
[16] = tested on: TK-10
[17] = tested on: HCT-116
[18] = tested on: MOLT-4

SMILES	GI50 [1]	GI50 [2]	GI50 [3] [µM]	GI50 [4]	GI50 [5]	GI50 [6]	GI50 [7]	GI50 [8]	GI50 [9]	GI50 [10]	GI50 [11]	GI50 [12]	GI50 [13]	GI50 [14]	GI50 [15]	GI50 [16]	GI50 [17]	GI50 [18]
CC1=CC23C(COC(=O)C24CO4)C(C(=O)O)=CC3C1C (centres undefined)	9.79 µM (inactive)	18.2 µM (inactive)	24.5	2.78 µM (inactive)	12.8 µM (inactive)	27.1 µM (inactive)	15 µM (inactive)	5.86 µM (inactive)	5.33 µM (inactive)	24 µM (inactive)	24.4 µM (inactive)	4.85 µM (inactive)	14.1 µM (inactive)	23.3 µM (inactive)	32.3 µM (inactive)	21.2 µM (inactive)	16 µM (inactive)	17.4 µM (inactive)
COc1cccc(N2C(=O)CS(=O)(=O)C2c2cccc(Oc3ccccc3)c2)c1 (centres undefined)	26.1 µM (inactive)	15.6 µM (inactive)	5.27	21.8 µM (inactive)	6.1 µM (inactive)	23.4 µM (inactive)	11 µM (inactive)	26.9 µM (inactive)	27.1 µM (inactive)	2.38 µM (inactive)	34 µM (inactive)	3.6 µM (inactive)	25.2 µM (inactive)	10.1 µM (inactive)	19.5 µM (inactive)	16.5 µM (inactive)	11.1 µM (inactive)	21.3 µM (inactive)
O=C(O)c1ccccc1Sc1ccccc1[N+](=O)[O-]	> 100 µM (inactive)	> 100 µM (inactive)	> 100	> 100 µM (inactive)	> 100 µM (inactive)	> 100 µM (inactive)	> 100 µM (inactive)	> 100 µM (inactive)	> 100 µM (inactive)	> 100 µM (inactive)	> 100 µM (inactive)	> 100 µM (inactive)	> 100 µM (inactive)	> 100 µM (inactive)	> 100 µM (inactive)	> 100 µM (inactive)	> 100 µM (inactive)	> 100 µM (inactive)
COC(=O)c1ccccc1CC1Cc2ccc3c(c2C1=O)CCCC3 (centres undefined)	24 µM (inactive)	32 µM (inactive)	25.4	60.7 µM (inactive)	57.1 µM (inactive)	35.3 µM (inactive)	12.9 µM (inactive)	23.8 µM (inactive)	87.7 µM (inactive)	35.8 µM (inactive)	> 100 µM (inactive)	17 µM (inactive)	> 77.4 µM (inactive)	52.8 µM (inactive)	51.4 µM (inactive)	51.4 µM (inactive)	29.2 µM (inactive)	10.4 µM (inactive)
CCCCCCCCCCCCN(CC(O)C(O)C(OC1OC(CO)C(O)C(O)C1O)C(O)CO)C(=O)CCCCCCCCCCC (centres undefined)	19 µM (inactive)	19 µM (inactive)	18.6	26.3 µM (inactive)	20.2 µM (inactive)	21.4 µM (inactive)	33.7 µM (inactive)	31.9 µM (inactive)	17.9 µM (inactive)	21 µM (inactive)	41 µM (inactive)	19 µM (inactive)	25.8 µM (inactive)	24.7 µM (inactive)	21.8 µM (inactive)	16.3 µM (inactive)	19.5 µM (inactive)	25.1 µM (inactive)
CC(=O)Nc1ccc(C(=O)N[C@@H]2C(=O)N3[C@@H]2SC(C)(C)[C@@H]3C(=O)O)cn1	> 100 µM (inactive)	> 100 µM (inactive)	> 100	> 100 µM (inactive)	> 100 µM (inactive)	> 100 µM (inactive)	> 100 µM (inactive)	> 100 µM (inactive)	> 100 µM (inactive)	> 100 µM (inactive)	> 100 µM (inactive)	> 100 µM (inactive)	> 100 µM (inactive)	> 100 µM (inactive)	> 100 µM (inactive)	> 100 µM (inactive)	> 100 µM (inactive)	> 100 µM (inactive)
CC(C)CCC1(CCN)C(=O)NC(=O)NC1=O	> 100 µM (inactive)	> 100 µM (inactive)	> 100	> 100 µM (inactive)	> 100 µM (inactive)	> 100 µM (inactive)	38.2 µM (inactive)	19.6 µM (inactive)	> 100 µM (inactive)	> 100 µM (inactive)	> 100 µM (inactive)	16.3 µM (inactive)	> 100 µM (inactive)	> 100 µM (inactive)	> 100 µM (inactive)	> 100 µM (inactive)	> 100 µM (inactive)	16.2 µM (inactive)
OC1(C(Sc2cc(C(F)(F)F)cc(C(F)(F)F)c2)Sc2cc(C(F)(F)F)cc(C(F)(F)F)c2)C=CCCC1 (centres undefined)	1.79 µM (inactive)	1.91 µM (inactive)	1.37	2.95 µM (inactive)	1.99 µM (inactive)	2.58 µM (inactive)	1.38 µM (inactive)	1.61 µM (inactive)	2.49 µM (inactive)	2.56 µM (inactive)	0.847 µM (active)	1.53 µM (inactive)	3.25 µM (inactive)	1.35 µM (inactive)	2.04 µM (inactive)	1.51 µM (inactive)	2.12 µM (inactive)	1.65 µM (inactive)
O=C1OC(OC/C(Br)=C(\Br)COC2OC(=O)C(Cl)=C2Cl)C(Cl)=C1Cl (centres undefined)	2.26 µM (inactive)	2.39 µM (inactive)	2.8	5.57 µM (inactive)	6.3 µM (inactive)	3.18 µM (inactive)	0.324 µM (active)	0.659 µM (active)	17.1 µM (inactive)	3.65 µM (inactive)	12.9 µM (inactive)	1.14 µM (inactive)	14.5 µM (inactive)	19.5 µM (inactive)	3.95 µM (inactive)	4.67 µM (inactive)	1.86 µM (inactive)	0.807 µM (active)
CCOC(=O)N1CCC2(CC1)C[C@](Sc1ccccc1)(C(C)=O)[C@H](C)O2	> 100 µM (inactive)	> 100 µM (inactive)	> 100	> 100 µM (inactive)	> 100 µM (inactive)	> 100 µM (inactive)	> 100 µM (inactive)	12.1 µM (inactive)	> 100 µM (inactive)	53.5 µM (inactive)	> 100 µM (inactive)	> 100 µM (inactive)	> 100 µM (inactive)	> 100 µM (inactive)	> 100 µM (inactive)	> 100 µM (inactive)		> 100 µM (inactive)
Cc1cc(C)c(S(=O)(=O)N2CCCN(S(=O)(=O)c3c(C)cc(C)cc3C)OCCCO2)c(C)c1	> 100 µM (inactive)	> 100 µM (inactive)	> 100	> 100 µM (inactive)	> 100 µM (inactive)	75.5 µM (inactive)	> 100 µM (inactive)	> 100 µM (inactive)	> 100 µM (inactive)	> 100 µM (inactive)	> 100 µM (inactive)	> 100 µM (inactive)	> 100 µM (inactive)	> 100 µM (inactive)	> 100 µM (inactive)	> 100 µM (inactive)	> 100 µM (inactive)	> 100 µM (inactive)
CC(=O)O[C@H]1C(=O)[C@@]2(C)[C@H]([C@H](OC(=O)C3CCCCC3)[C@]3(O)C[C@H](OC(=O)[C@H](O)[C@@H](NC(=O)C4CCCCC4)C4CCCCC4)C(C)=C1C3(C)C)[C@]1(OC(C)=O)CO[C@@H]1C[C@@H]2O	0.105 µM (active)	0.01 µM (active)	0.143	0.00962 µM (active)	0.0163 µM (active)	< 0.0132 µM (active)	0.00586 µM (active)	0.0234 µM (active)	0.057 µM (active)	0.0025 µM (active)	0.0224 µM (active)	0.0128 µM (active)	0.0222 µM (active)	0.0902 µM (active)	0.00386 µM (active)	0.0451 µM (active)	0.00439 µM (active)	0.0151 µM (active)
CCC1C(c2cc(OC)c(OC)c(OC)c2)c2cc3c(cc2OC1N1CCCC1)OCO3 (centres undefined)	0.598 µM (active)	1.21 µM (inactive)	0.984	1.36 µM (inactive)	1.31 µM (inactive)	4.46 µM (inactive)	1.57 µM (inactive)	1.16 µM (inactive)	2.74 µM (inactive)	0.231 µM (active)	8.49 µM (inactive)	0.752 µM (active)	2.82 µM (inactive)	3.15 µM (inactive)	1.45 µM (inactive)	7.91 µM (inactive)	1.32 µM (inactive)	1.95 µM (inactive)
COc1ccc(C2NC(=O)Nc3c2c(=O)oc2c3ccc3ccccc32)cc1 (centres undefined)	52.8 µM (inactive)	> 100 µM (inactive)	46.1	41.4 µM (inactive)	29.6 µM (inactive)	52.6 µM (inactive)	70.8 µM (inactive)	37 µM (inactive)	33.2 µM (inactive)	59.2 µM (inactive)	> 100 µM (inactive)	48.1 µM (inactive)	61.4 µM (inactive)	31.4 µM (inactive)	92.9 µM (inactive)	74.3 µM (inactive)	75.9 µM (inactive)	62.8 µM (inactive)
N#Cc1ccc(C2ON=C(c3ccccc3)N2C23CC4CC(CC(C4)C2)C3)cc1 (centres undefined)	> 10 µM (inactive)	> 10 µM (inactive)	> 10	> 10 µM (inactive)	> 10 µM (inactive)	> 10 µM (inactive)	4.05 µM (inactive)	> 10 µM (inactive)	> 10 µM (inactive)	> 10 µM (inactive)	> 10 µM (inactive)	> 10 µM (inactive)	> 10 µM (inactive)	> 10 µM (inactive)	> 10 µM (inactive)	> 10 µM (inactive)	> 10 µM (inactive)	9.66 µM (inactive)
